Tests used:
Type in all cases: cell-based, human
[1] = system: eIF2α (S51) phosphorylation; experiment: Immunoblot analysis of eIF2α (S51) phosphorylation in U2OS cells; conditions: U2OS cells
[2] = system: U2OS wildtype (WT) and ΔΔG3BP1/2 cells; experiment: Propidium iodide (PI) uptake cell death assay (HCM) in U2OS WT and ΔΔG3BP1/2 cells; conditions: ΔΔG3BP1/2 cells compared to wildtype U2OS cells, 2 mM LLOMe for 30 min
Protocol: Cells Were treated with 2 mM LLOMe for 30 min, and then stained with propidium iodide (PI) (dead cells) and Hoechst-33342 (total cells). White masks, algorithm-defined cell boundaries (primary objects); red masks, computer-identified PI^+ nuclei (target objects). […] Cells Were treated with 2 mM LLOMe for 30 min. […] Cells Were treated with 2 mM in the presence or absence of 10 μg/ml cycloheximide (CHX) for 30 min, and then stained with PI (dead cells) and Hoechst-33342 (total cells). […] Scale bar, 10 μm. […] Cells Were treated with 2 mM LLOMe with or without CHX for 30 min, and then stained using Live/Dead™ stain kit (ThermoFisher). […] (i) HCM images: white masks, algorithm-defined cell boundaries; green masks, computer-identified eIF4G puncta; red masks, computer-identified PI^+ nuclei (target objects); (ii and iii) corresponding HCM quantification. […]
How does SG formation affect cell fate during lysosomal damage? […] The inventors quantified the number of SGs using the canonical SG marker polyA RNA (Ivanov et al., 2019) via high-content microscopy (HCM) (FIG. S1B) and verified the depletion of SG formation in ΔΔG3BP1/2 cells when exposed to the lysosome-specific damaging agent L-leucyl-L-leucine methyl ester (LLOMe) (Jia et al., 2022; Tan et al., 2022; Thiele et al., 1990) (FIG. 7SB). […]

[3] = system: mTOR and Raptor on lysosomes; experiment: LysoIP quantitative DIA proteomics (LC/MS/MS) of lysosomes from HEK293T cells; conditions: 1 mM LLOMe for 30 min
Protocol: Three groups of proteins are labeled (ESCRT components in green, autophagy factors in blue and stress granule components in purple). […] The dotted orange line indicates the significance cut-off (P<0.05). […] The significant increased proteins in LysoIP LC/MS/MS were analyzed by STRING functional protein association networks. […] Strength, Log 10(observed/expected) describes how large the enrichment effect is. […] TMEM192-2×FLAG, control. […] U20S cells Were treated with Earle's Balanced Salt Solution (EBSS), 4 mM LOMe, 2 mM LLOMe, 200 μM GPN, or 400 μg/mL silica for 30 min. White masks, algorithm-defined cell boundaries (primary objects); red masks, computer-identified G3BP1 puncta (target objects). […] U2OS cells Were treated with 2 mM LLOMe for 30 min and stained for endogenous G3BP1. Scale bar, 5 μm. […] Green masks, computer-identified G3BP1 puncta. […] Red masks, computer-identified Galectin-3 puncta. FIG. 1G Immunoblot analysis of eIF2α (S51) phosphorylation in U2OS cells treated with 2 mM LLOMe for 30 min and followed by 1 h washout. […] The level of phosphorylation of eIF2α (S51) is quantified based on three independent experiments. […] Scale bar, 5/10 μm. […] The level of ATF4 and phosphorylation of eIF2α (S51) and 4EBP1 (S65) are quantified based on three independent experiments. Ctrl, control (untreated cells). […]

## COC(=O)[C@H](CC(C)C)NC(=O)[C@@H](N)CC(C)C [LLOMe, L-leucyl-L-leucine methyl ester]
[1]; 2 mM LLOMe 30 min followed by 1 h washout
  eIF2α pS51 response after LLOMe washout: subsided
[1]; 2 mM LLOMe for 30 min
  phosphorylation of eIF2α on Ser51: induced phosphorylation of eIF2α on Ser51
[1]; 2 mM LLOMe, later time points
  phosphorylated eIF2α at later times during treatment: reduced levels of phosphorylated eIF2α at later times
[1]; indicated dose of LLOMe for 30 min
  eIF2α phosphorylation, dose dependence: induced eIF2α phosphorylation
[2]
  cell death by PI uptake assay: significant cell death
[3]
  mTOR and Raptor association with lysosomes (mass spectrometry): mTOR and Raptor dissociate from lysosomes
